Measurements reported in ChEMBL document CHEMBL1201862, “PubChem BioAssay data set” (2004).
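Briefly, cells in 96-well plates were exposed to five compound concentrations for 48 h, and endpoints were estimated by linear interpolation. GI50 is the concentration that inhibits growth by half.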 Calls of active or inactive are those of the source. No stated cut-off is given here; in the data, active = GI50 up to about 1.1 µM and inactive = higher.

Tests used:
Assay in all cases: NCI anticancer screen, dose series, 48 h
DLD-1 = test system: DLD-1
EKVX = test system: EKVX
HCT-116 = test system: HCT-116
HOP-92 = test system: HOP-92
M14 = test system: M14
M19-MEL = test system: M19-MEL
MOLT-4 = test system: MOLT-4
SNB-19 = test system: SNB-19
SR = test system: SR
SW-620 = test system: SW-620
TK-10 = test system: TK-10
BT-549 = test system: BT-549
DU-145 = test system: DU-145
Hs-578T = test system: Hs-578T
MCF7 = test system: MCF7
MDA-MB-231 = test system: MDA-MB-231
MDA-MB-435 = test system: MDA-MB-435
MDA-N = test system: MDA-N
PC-3 = test system: PC-3
T47D = test system: T47D

Compound | GI50 (DLD-1) | GI50 (EKVX) | GI50 (HCT-116) | GI50 (HOP-92) | GI50 (M14) | GI50 (M19-MEL) | GI50 (MOLT-4) | GI50 (SNB-19) | GI50 (SR) | GI50 (SW-620) | GI50 (TK-10) | GI50 (BT-549) | GI50 (DU-145) | GI50 (Hs-578T) | GI50 (MCF7) | GI50 (MDA-MB-231) | GI50 (MDA-MB-435) | GI50 (MDA-N) | GI50 (PC-3) | GI50 (T47D)
CCCCCCCCCCCCNC(=S)OC | 15 µM (inactive) | 20.7 µM (inactive) | 15.4 µM (inactive) | 7.08 µM (inactive) | 17.3 µM (inactive) | 17.9 µM (inactive) | 2.16 µM (inactive) | 24.7 µM (inactive) | 3.01 µM (inactive) | 16.6 µM (inactive) | 19.5 µM (inactive) |  |  |  |  |  |  |  |  | 
Cc1ccccc1NC(=O)CSc1nnc(Cc2ccccc2)o1 | > 100 µM (inactive) |  | > 100 µM (inactive) |  | > 100 µM (inactive) | > 100 µM (inactive) | > 100 µM (inactive) |  |  |  | > 100 µM (inactive) |  |  |  |  |  |  |  |  | 
O=c1[nH]cnc2c(COCCCO)c[nH]c12 | > 100 µM (inactive) | > 100 µM (inactive) | > 100 µM (inactive) | > 100 µM (inactive) | > 100 µM (inactive) | > 100 µM (inactive) | > 100 µM (inactive) | > 100 µM (inactive) | > 100 µM (inactive) | > 100 µM (inactive) | > 100 µM (inactive) |  |  |  |  |  |  |  |  | 
CC1(CO)OC(n2cnc3c(N)ncnc32)C(O)C1O (stereo not drawn) | > 100 µM (inactive) |  | > 100 µM (inactive) | > 100 µM (inactive) | > 100 µM (inactive) | > 100 µM (inactive) | > 100 µM (inactive) | > 100 µM (inactive) | > 100 µM (inactive) | > 100 µM (inactive) | > 100 µM (inactive) |  |  |  |  |  |  |  |  | 
Cc1ccc(S(=O)(=O)OCCOCCOCCOCCOCCOS(=O)(=O)c2ccc(C)cc2)cc1 | 60.8 µM (inactive) | 94.2 µM (inactive) | 52.5 µM (inactive) | 35.7 µM (inactive) | 45.1 µM (inactive) | 30.3 µM (inactive) | 14.4 µM (inactive) | > 100 µM (inactive) | 54.3 µM (inactive) | 91.2 µM (inactive) | 36.7 µM (inactive) |  |  |  |  |  |  |  |  | 
CO/C(=N\N=Cc1ccccc1)c1ccncc1 | > 100 µM (inactive) | > 100 µM (inactive) | > 100 µM (inactive) | > 100 µM (inactive) | > 100 µM (inactive) | > 100 µM (inactive) | > 100 µM (inactive) | > 100 µM (inactive) | > 100 µM (inactive) | > 100 µM (inactive) | > 100 µM (inactive) |  |  |  |  |  |  |  |  | 
CCCCCCC1NN(C(C)=O)C(CCCCCC)NN1C(C)=O (stereo not drawn) | 52.1 µM (inactive) | > 100 µM (inactive) | > 100 µM (inactive) | > 100 µM (inactive) | > 100 µM (inactive) | > 100 µM (inactive) | > 100 µM (inactive) | > 100 µM (inactive) |  | 20.4 µM (inactive) | > 100 µM (inactive) |  |  |  |  |  |  |  |  | 
COc1ccc2c(c1)[n+]([O-])c(C(C)=O)c(C)[n+]2[O-] | > 100 µM (inactive) | > 100 µM (inactive) | > 100 µM (inactive) | > 100 µM (inactive) | > 100 µM (inactive) | > 100 µM (inactive) | > 100 µM (inactive) | > 100 µM (inactive) |  | > 100 µM (inactive) | > 100 µM (inactive) |  |  |  |  |  |  |  |  | 
COc1ccc2c(c1)OC[C@@H]1c3cc(O)c(OCc4ccccc4)cc3O[C@H]21 | 36.1 µM (inactive) | 19.4 µM (inactive) | 29.9 µM (inactive) | 14.8 µM (inactive) | 27.9 µM (inactive) | 27 µM (inactive) | 29.5 µM (inactive) | 46.8 µM (inactive) |  | 29.6 µM (inactive) | 32.7 µM (inactive) |  |  |  |  |  |  |  |  | 
O=C(NC1CCCCC1)NC12CC3CC(CC(F)(C3)C1)C2 | > 100 µM (inactive) | 57.7 µM (inactive) | > 100 µM (inactive) | 54.5 µM (inactive) | > 100 µM (inactive) | > 100 µM (inactive) | > 100 µM (inactive) | > 100 µM (inactive) |  | > 100 µM (inactive) | 85.3 µM (inactive) |  |  |  |  |  |  |  |  | 
Clc1ccc(OC2CCO2)cc1Cl (stereo not drawn) | 85.9 µM (inactive) | > 100 µM (inactive) | 33.8 µM (inactive) | 46.3 µM (inactive) | > 100 µM (inactive) | > 100 µM (inactive) | 35.3 µM (inactive) | > 100 µM (inactive) |  | 17.9 µM (inactive) | 87.7 µM (inactive) |  |  |  |  |  |  |  |  | 
COc1c(CC(C)O)c2c3c(CC(C)O)c(OC)c(=O)c4c(O)cc5c(c6c(cc(O)c(c1=O)c62)OCO5)c43 (stereo not drawn) [CERCOSPORIN] | 1.96 µM (inactive) |  | 1.39 µM (inactive) | 2.3 µM (inactive) | 1.29 µM (inactive) | 0.664 µM (active) | 1.75 µM (inactive) | 2.49 µM (inactive) | 1.37 µM (inactive) | 2.1 µM (inactive) | 2.62 µM (inactive) |  |  |  |  |  |  |  |  | 
O=Cc1cc(O)ccc1Br |  | 65.6 µM (inactive) | 3.31 µM (inactive) | 19 µM (inactive) | 5.45 µM (inactive) |  | 4.15 µM (inactive) | 12.5 µM (inactive) | 2.63 µM (inactive) | 4.78 µM (inactive) | 11.3 µM (inactive) | 11.6 µM (inactive) | 44.7 µM (inactive) | 9.31 µM (inactive) | 4.41 µM (inactive) | 36.1 µM (inactive) | 2.5 µM (inactive) | 3.1 µM (inactive) | 13.2 µM (inactive) | 42.1 µM (inactive)
